From the OligoGym collection come the findings set out here.

The target in this series is SMN2. Description: mouse, dose not given. The conditions noted are these: ASO.

HELM strings list units from the 5' end as sugar, base in round brackets, then linkage (d deoxyribose, r ribose, m 2'-O-methyl, p phosphodiester). Strings are as the collection lists them; they lack the last nucleoside at the 3' end of the tested compound. [moe] = 2'-O-(2-methoxyethyl) (MOE); [sp] = phosphorothioate linkage; [m5C] = 5-methylcytosine

Consider “RNA1{[moe](T)[sp].[moe]([m5C])p.[moe](A)[sp].[moe]([m5C])[sp].[moe](T)[sp].[moe](T)[sp].[moe](T)[sp].[moe]([m5C])[sp].[moe](A)[sp].[moe](T)[sp].[moe](A)[sp].[moe](A)[sp].[moe](T)[sp].[moe](G)[sp].[moe]([m5C])p.[moe](T)[sp].[moe](G)}$$$$ (last 3' nucleoside missing)”, for which the 3 h FOB score was determined as 3.5 score 0-7. “RNA1{[moe](T)[sp].[moe]([m5C])p.[moe](A)[sp].[moe]([m5C])[sp].[moe](T)[sp].[moe](T)[sp].[moe](T)[sp].[moe]([m5C])[sp].[moe](A)p.[moe](T)[sp].[moe](A)[sp].[moe](A)[sp].[moe](T)[sp].[moe](G)[sp].[moe]([m5C])[sp].[moe](T)[sp].[moe](G)}$$$$ (last 3' nucleoside missing)” came in with a 3 h FOB score of 4 score 0-7.

Take “RNA1{[moe](T)[sp].[moe]([m5C])p.[moe](A)[sp].[moe]([m5C])p.[moe](T)[sp].[moe](T)[sp].[moe](T)[sp].[moe]([m5C])[sp].[moe](A)[sp].[moe](T)[sp].[moe](A)[sp].[moe](A)[sp].[moe](T)[sp].[moe](G)[sp].[moe]([m5C])[sp].[moe](T)[sp].[moe](G)}$$$$ (last 3' nucleoside missing)”: the 3 h FOB score was determined as 3.75 score 0-7. To “RNA1{[moe](T)[sp].[moe]([m5C])p.[moe](A)p.[moe]([m5C])[sp].[moe](T)[sp].[moe](T)[sp].[moe](T)[sp].[moe]([m5C])[sp].[moe](A)[sp].[moe](T)[sp].[moe](A)[sp].[moe](A)[sp].[moe](T)[sp].[moe](G)[sp].[moe]([m5C])[sp].[moe](T)[sp].[moe](G)}$$$$ (last 3' nucleoside missing)” belongs 4.75 score 0-7; to “RNA1{[moe](T)p.[moe](T)[sp].[moe]([m5C])[sp].[moe](A)[sp].[moe]([m5C])[sp].[moe](T)[sp].[moe](T)[sp].[moe](T)[sp].[moe]([m5C])[sp].[moe](A)[sp].[moe](T)[sp].[moe](A)[sp].[moe](A)[sp].[moe](T)[sp].[moe](G)[sp].[moe]([m5C])[sp].[moe](T)[sp].[moe](G)[sp].[moe](G)}$$$$ (last 3' nucleoside missing)”, 3.25 score 0-7; to “RNA1{[moe](T)p.[moe](T)[sp].[moe]([m5C])[sp].[moe](A)[sp].[moe]([m5C])[sp].[moe](T)[sp].[moe](T)[sp].[moe](T)[sp].[moe]([m5C])[sp].[moe](A)[sp].[moe](T)[sp].[moe](A)[sp].[moe](A)[sp].[moe](T)[sp].[moe](G)[sp].[moe]([m5C])[sp].[moe](T)[sp].[moe](G)}$$$$ (last 3' nucleoside missing)”, 4 score 0-7. For “RNA1{[moe]([m5C])[sp].[moe](A)[sp].[moe]([m5C])[sp].[moe](T)[sp].[moe](T)[sp].[moe](T)[sp].[moe]([m5C])[sp].[moe](A)[sp].[moe](T)[sp].[moe](A)[sp].[moe](A)[sp].[moe](T)[sp].[moe](G)[sp].[moe]([m5C])[sp].[moe](T)[sp].[moe](G)[sp].[moe](G)[sp].[moe]([m5C])[sp].[moe](A)}$$$$ (last 3' nucleoside missing)”, the 3 h FOB score worked out at 0 score 0-7.

As to “RNA1{[moe]([m5C])[sp].[moe](A)[sp].[moe]([m5C])[sp].[moe](T)[sp].[moe](T)[sp].[moe](T)[sp].[moe]([m5C])[sp].[moe](A)[sp].[moe](T)[sp].[moe](A)[sp].[moe](A)[sp].[moe](T)[sp].[moe](G)[sp].[moe]([m5C])[sp].[moe](T)[sp].[moe](G)[sp].[moe](G)[sp].[moe]([m5C])}$$$$ (last 3' nucleoside missing)”, the 3 h FOB score was 0 score 0-7. To “RNA1{[moe]([m5C])[sp].[moe](A)[sp].[moe]([m5C])[sp].[moe](T)[sp].[moe](T)[sp].[moe](T)[sp].[moe]([m5C])[sp].[moe](A)[sp].[moe](T)[sp].[moe](A)[sp].[moe](A)[sp].[moe](T)[sp].[moe](G)[sp].[moe]([m5C])[sp].[moe](T)[sp].[moe](G)[sp].[moe](G)}$$$$ (last 3' nucleoside missing)” belongs 2.5 score 0-7.
